The values that follow come from BindingDB's records for doi:10.1021/acs.jmedchem.0c00899 (Ut Southwestern Medical Center, 2020).

Some results are limits rather than exact numbers.

Assay [1] in a line: Inhibition of SCD in human NCI-H2122 cells expressing CYP4F11 assessed as reduction in cell viability incubated for 96 hrs by cell titer Glo reagent based assay.
Assay [2] in a line: Inhibition of SCD in human NCI-H1155 cells non-expressing CYP4F11 assessed as reduction in cell viability incubated for 96 hrs by cell titer Glo reagent based assay.
The nature of assay [3]: Inhibition of SCD in human H2009 cells non-expressing CYP4F11 assessed as reduction in cell viability incubated for 96 hrs by cell titer Glo reagent based assay. In general terms: In ATP-based viability assays light output follows the ATP content of the culture.

In general, IC50 refers to the concentration that inhibits the measured activity by half. Regarding `Cc1nnc(-c2ccc(N3CCC(Oc4cc(F)ccc4Cl)CC3)nn2)o1`, the IC50 in assay [1] and in assay [2] was less than 0.01 µM each time. With `COc1ccc2nc(NC(=O)c3cccnc3)sc2c1`, the IC50 stood at 1.1 µM in assay [1] and 37 µM in assay [3]. Regarding `COc1ccc2nc(NC(=O)c3ccc(C(=O)N4CCN(C)CC4)cc3)sc2c1`, the IC50 in assay [1] and in assay [3] was greater than 50 µM throughout.

For the molecule `O=C(Nc1nc2ccccc2s1)c1cccnc1`, the IC50 was 0.26 µM in assay [1] and greater than 50 µM in assay [3]. On to `O=C(Nc1nc2ccccc2[nH]1)c1ccc(C(=O)c2ccccc2)cc1`, for which the IC50 in assay [1] turned out to be 0.042 µM; in assay [3], 1.8 µM. On to `O=C(Nc1nc2ccccc2o1)c1ccc(C(=O)c2ccccc2)cc1`, for which the IC50 in assay [1] amounted to 43 µM. In the case of `O=C(Nc1nccs1)c1ccc(C(=O)c2ccccc2)cc1`, the values for the IC50 in assay [1] and in assay [3] were 33 µM and greater than 50 µM, respectively. On the same counts, the results for `O=C(Nc1ncc(-c2ccccc2)s1)c1ccc(C(=O)c2ccccc2)cc1` are 5.8 µM and 5 µM.

Regarding `O=C(Nc1nc(-c2ccccc2)cs1)c1ccc(C(=O)c2ccccc2)cc1`, the IC50 in assay [1] turned out to be 4.7 µM; in assay [3], 14.9 µM.

With `COc1ccc(C(=O)Nc2nc3cc(N)ccc3s2)cc1`, the IC50 in assay [1] and in assay [3] was greater than 50 µM each time. For the molecule `COc1ccc2nc(NC(=O)CCc3ccccc3)sc2c1`, the IC50 in assay [1] was greater than 50 µM. Regarding `COc1ccc2nc(NS(=O)(=O)c3ccccc3)sc2c1`, the IC50 in assay [1] is greater than 50 µM.
